Test results: US20250066371A1, “FLUOROALKOXYALKYLENE-DIHYDROIMIDAZO[5,1-D]TETRAZINONE COMPOUNDS AND RELATED COMPOUNDS AND THEIR USE IN TREATING MEDICAL CONDITIONS” (priority 2023, published 2025)
Read-outs that look alike come from different tables or passages of the source.

Legend:
Assay type in all cases: cell-based
[1] = test system: LN229 gliobastoma cells MGMT−/MMR+; test: Anti-cancer assay, isogenic LN229 cells, nuclei count (Examples 43, 46); details: Homo sapiens, LN-229; LN229 MGMT−/MMR+; 120 hours; read-out: MGMT− MMR+ Activity
From the text: (§1) Cytotoxicity of the compounds may be measured in short-term cell viability assays against four isogenic LN229 glioblastoma cell lines engineered to be proficient or deficient in MGMT and/or MMR activity by using short hairpin RNAs (shRNAs) targeting MSH2. This approach allows for determination of the relationship between MGMT status, MMR status, and compound activity. LN229 cells are maintained in Dulbecco's Modified Eagle Medium (DMEM) supplemented with 10% fetal bovine serum, 1% Penicillin/Streptomycin, and 0.1% Fungin. DAY 0: Cells are plated into sterile 96-well plates (Corning Costar 96-well) at a concentration of 500 cells/well using a Multichannel pipettor. Then, assay plates are incubated overnight in a 37° C. 5% CO2 incubator. DAY 1: Compounds are prepared as 50 mM stocks in dimethyl sulfoxide (DMSO) and stored protected from light at room temperature (RT) until use. Prior to compound addition, a two-fold serial dilution of compound stock solutions is performed in DMSO from 30 mM to 0.117 mM in a 96-well Master plate. Vehicle control wells contain DMSO. 97 μL of media is added to each well of a new 96-well plate (Daughter plate) and 3 μL of drug solution from Master plate is added to corresponding wells in the Daughter plate resulting in a 3× plate. Three replicate dilution curves of each compound are run on each assay plate. The final concentration of compounds ranges from 300 μM to 1.171 μM (9-point, 2-fold dilution dose response curve), and the final DMSO concentration is 1%.
(§2) Assay plates are incubated for 120 hours at 37° C. in a humidified 5% CO2 incubator. DAY 5: Following incubation, cells are fixed with 4% paraformaldehyde and stained with Hoechst dye for nuclei visualization. Fixation, staining and washing is performed by using a Thermo Scientific Multidrop Combi. Images are acquired on a BioTek Cytation 5 Cell Imaging Multimode Reader and quantified using Cell Profiler image analysis software. Raw cell count data for test compounds are normalized to percent viability relative to the DMSO vehicle control.
(§3) Isogenic LN229 gliobastoma cells were maintained in Dulbecco's Modified Eagle Medium (DMEM) supplemented with 10% fetal bovine serum, 1% Penicillin/Streptomycin, and 0.1% Fungin. DAY 0: Cells were plated into sterile 96-well plates (Corning Costar 96-well) at a concentration of 500 cells/well using a Multichannel pipettor. Then, assay plates were incubated overnight in a 37° C. 5% CO2 incubator. DAY 1: Compounds were prepared as 50 mM stocks in dimethyl sulfoxide (DMSO) and stored protected from light at room temperature (RT) until use. Prior to compound addition, a two-fold serial dilution of compound stock solutions was performed in DMSO from 30 mM to 0.117 mM in a 96-well Master plate. Vehicle control wells contained DMSO. 97 μL of media was added to each well of a new 96-well plate (Daughter plate) and 3 μL of drug solution from Master plate was added to corresponding wells in the Daughter plate resulting in a 3× plate. Three replicate dilution curves of each compound were run on each assay plate. The final concentration of compounds ranged from 300 μM to 1.171 μM (9-point, 2-fold dilution dose response curve), and the final DMSO concentration was 1%.
as §2, with “plates were” for “plates are”, “cells were” for “cells are”, “washing was” for “washing is”, “Images were” for “Images are”, “compounds were” for “compounds are”, “control. […]” for “control.”

[2] = test system: LN229 gliobastoma cells MGMT−/MMR−; test: as above; details: Homo sapiens, LN-229; LN229 MGMT−/MMR−; 120 hours; read-out: MGMT− MMR− Activity
From the text: as §1, §2, §3
as §2, with “plates were” for “plates are”, “cells were” for “cells are”, “washing was” for “washing is”, “Images were” for “Images are”, “compounds were” for “compounds are”, “control. […]” for “control.”

[3] = test system: 885 barcoded cancer cell lines; test: PRISM multiplexed cell-viability assay (Example 45); details: 5-day treatment; for Log 2 fold change in abundance of the cells: 66.7 μM
From the text: The multiplexed cell-viability platform, PRISM (profiling relative inhibition simultaneously in mixtures), enabled multiplexed screening of Compound I-1 across 900 barcoded cell lines representing more than 45 lineages. Details of the assay technique are described in Yu, C., et al. “High-throughput identification of genotype-specific cancer vulnerabilities in mixtures of barcoded tumor cell lines,” Nat. Biotechnol. 2016, Vol. 34, p. 419-423; and Corsello, S. M., et al. “Discovering the anti-cancer potential of non-oncology drugs by systematic viability profiling,” Nat. Cancer, 2020, Vol. 1, p. 235-248; each of which are hereby incorporated by reference in their entirety.
Briefly, unique oligonucleotide barcodes are stably transduced into individual cancer cell lines. Following barcode transduction, individual cell lines are pooled together in groups of 20-25 based on growth rate similarity, then thawed into 384-well assay-ready plates, and treated with test compound. After 5 days of incubation, isolated mRNA is used to quantify transcribed barcode abundance of each individual cancer cell line to calculate relative viability (Log 2 fold change, “LFC”).
Compound I-1 was screened in the PRISM assay at 8-point dose (3-fold dilution) with a 5-day treatment with 885 cancer cell lines passing QC. Two PRISM cell line collections were used in the assay: PR500 (including only adherent cell lines) and PR300+(including adherent and suspension cell lines). Benchmark compounds (included in the validation compounds) were also tested at doses to ensure high data quality. All compounds were run in triplicate, and each plate contained positive (Bortezomib, 20 μM) and negative (DMSO) controls.

[4] = test system: LN229 gliobastoma cells MGMT−/MMR−; test: Anti-cancer assay, isogenic LN229 cells, nuclei count (Examples 43, 46); details: Homo sapiens, LN-229; MGMT negative/MMR negative; Example 46, maximum concentration 200 μM; read-out: IC50 for causing the death of LN229 cells

NC(=O)c1ncn2c(=O)n(CCOC(F)(F)F)nnc12 [Compound I-1, 4-Oxo-3-(2-(trifluoromethoxy)ethyl)-3,4-dihydroimidazo[5,1-d][1,2,3,5]tetrazine-8-carboxamide]
IC50 [1]: < 20 µM | IC50 [2]: < 20 µM | Log 2 fold change in abundance of the cells ([3]; cell lines of Table 8): −3.5 to −2.0 | Log 2 fold change in abundance of the cells ([3]; cell lines of Table 9): −2.0 to −1.0 | Log 2 fold change in abundance of the cells ([3]; cell lines of Table 10): −1.0 to −0.5 | Log 2 fold change in abundance of the cells ([3]; cell lines of Table 11): −0.5 to −0.001 | anti-cancer effect ([3]; cell lines of Table 12): did not appear to provide an anti-cancer effect | IC50 [4]: < 20 µM
